# From patent US8609674B2, “Potassium channel modulators” (AbbVie Inc., priority 2010, dated 2013)
# Key:
# human KCNQ4 = target: T1, human KCNQ4 (Homo sapiens, UniProt P56696); experiment: KCNQ4 thallium influx FLIPR TETRA assay; assay type: cell-based; details: for EC50: HEK293 cells stably expressing human KCNQ4, Tl+ influx; for Emax: maximum response relative to 10 μM retigabine (=100%), read-out: KCNQ4 Max. %
# T1 construct: expressed in transfected cells; host or cells: HEK293
# Description: (§1) The following example describes the assay that may be used to identify compounds that activate KCNQ4 or KCNQ5 channels.
# (§2) The assays were performed using a FLIPR^TETRA (Molecular Devices, Sunnyvale, Calif.) in 384-well format. HEK293 cells stably expressing human KCNQ4 or KCNQ5 were seeded in 384-well, black-walled, clear-bottomed, poly-D-lysine coated plates (Greiner Bio-One, Germany) at a density of 1.5×10^4 cells per well, 24 hours before the assay. On the assay day, BTC-AM dye was loaded into the cells by replacing the cell culture medium with 30 μL/well of 2.8 μM dye in DPBS. Dye loading was allowed to proceed for 2 hours at room temperature and then cells were washed once in 30 μL/well of assay buffer (in mM: 10 HEPES pH 7.3, 5 glucose, 140 Na-gluconate, 2.5 K-gluconate, 3.6 Ca-gluconate, 2 MgSO4, 0.1 Ouabain) to remove unloaded dye. Cells were incubated in 30 μL of assay buffer before loading onto a FLIPR^TETRA system. Compounds to be assayed were added to the cells as 4× of final concentration in 15 μL of assay buffer and incubated for 4 minutes at room temperature. The influx signal was initiated by adding 15 μL of assay buffer containing 4.2 mM TlNO3 and 7 mM K2SO4. Tl^+ influx signals were recorded for 3 minutes. Tl^+ influx signal was quantified as light unit changes after Tl^+ addition using the “SUM” statistic from the FLIPR^TETRA software. Sums of the responses over basal responses were plotted versus concentrations of test compounds to obtain an EC50 value and the points fit with a nonlinear regression curve using GraphPad Prism software (GraphPad Software Inc., San Diego, Calif.). EC50 values were calculated from the resulting sigmoidal dose-response curves. The maximum response for each test compound was determined relative to the response produced by 10 μM retigabine. The maximum response of retigabine at 10 μM was set at 100%.
# [1] = test system: capsaicin-induced secondary mechanical hyperalgesia; experiment: Capsaicin-induced secondary mechanical hypersensitivity; assay type: in vivo, Sprague-Dawley rats; details: rat, about 30 mg/kg i.p., 30 min before testing, 180 min after capsaicin
# Description: (§3) Adult male Sprague-Dawley rats (250-300 g body weight, Charles River Laboratories, Portage, Mich.) were used. Animal handling and experimental protocols were approved by the Institutional Animal Care and Use Committee (IACUC) at Abbott Laboratories. For all surgical procedures, animals were maintained under isoflurane anesthesia (4-5% to induce, 1-3% to maintain), and the incision sites were sterilized using a 10% povidone-iodine solution prior to and after surgeries.
# Rats were allowed to acclimate to the study room for 1 hour. They were then briefly restrained, and capsaicin was administered at 10 μg in 10 μl of vehicle (10% ethanol and 2-hydroxypropyl cyclodextrin) by intraplantar injection into the center of the right hind paw. Secondary mechanical hyperalgesia was measured at the heel away from the site of injection at 180 min following capsaicin (Joshi et al 2006, Neuroscience 143, 587-596). Compounds were injected (i.p.) 30 min before testing (150 min post-capsaicin).
# (§4) Tactile (mechanical) allodynia was measured using calibrated von Frey filaments (Stoelting, Wood Dale, Ill.) as described in Chaplan, S. R., F. W. Bach, J. M. Pogrel, J. M. Chung and T. L. Yaksh, 1994, Quantitative assessment of tactile allodynia in the rat paw, J. Neurosci. Methods, 53, 55. Rats were placed into inverted individual plastic containers (20×12.5×20 cm) on top of a suspended wire mesh grid, and acclimated to the test chambers for 20 minutes. […] A 50% withdrawal threshold was determined using an up-down procedure (Dixon, W. J., 1980, Efficient analysis of experimental observations, Ann. Rev. Pharmacol. Toxicol., 20, 441). […] Tactile allodynia thresholds were also assessed in several control groups, including naive, sham-operated, and saline infused animals as well as in the contralateral paws of nerve-injured rats. To evaluate the anti-nociceptive effects, animals were administered vehicle or test compound and tactile allodynia was assessed 30 minutes after i.p. administration.
# Tactile allodynia was measured as described above.
# human KCNQ5 = target: T2, human KCNQ5 (Homo sapiens, UniProt Q9NR82); experiment: KCNQ5 thallium influx FLIPR TETRA assay; assay type: cell-based; details: for EC50: HEK293 cells stably expressing human KCNQ5, Tl+ influx; for Emax: maximum response relative to 10 μM retigabine (=100%), read-out: KCNQ5 Max. %
# T2 construct: expressed in transfected cells; host or cells: HEK293
# Description: as §1, §2
# [2] = target: T3, human KCNQ2 and KCNQ3 subunits (KCNQ2/3 channels) (Homo sapiens, UniProt O43525+O43526); experiment: KCNQ2/3 thallium influx FLIPR assay (BTC-AM dye); assay type: cell-based; details: for EC50: HEK293 cells stably expressing human KCNQ2 and KCNQ3, Tl+ influx; for Emax: maximum response relative to 10 μM retigabine (=100%), read-out: KCNQ2/3 Max. %
# T3 construct: expressed in transfected cells; host or cells: HEK293
# Description: The following example describes the assay that may be used to identify compounds that activate KCNQ2/3 channels.
# HEK293 cells stably expressing human KCNQ2 and KCNQ3 subunits were seeded in 96-well, black-walled, clear-bottomed, poly-D-lysine coated plates (BD Biosciences, Bedford, Mass.) at a density of 1×10^5 cells per well 24 hours before the assay. On the assay day, BTC-AM dye (Invitrogen, Carlsbad, Calif.) was loaded into the cells by replacing the cell culture medium with 55 μL/well of 3 μg/ml dye in Dulbecco's Phosphate Buffered Saline (DPBS) (Invitrogen). Dye loading was allowed to proceed for 2 hours at room temperature and then cells were washed twice with 50 μL/well of assay buffer (in mM: 10 HEPES pH 7.3, 5 glucose, 140 Na-gluconate, 2.5 K-gluconate, 3.6 Ca-gluconate, 2 MgSO4, 0.1 Ouabain) to remove unloaded dye. Cells were incubated in 50 μL of assay buffer before loading onto a FLIPR system (Molecular Devices, Sunnyvale, Calif.). Various concentrations of compounds to be assayed were added to the cells in 50 μL of assay buffer and incubated for 4 minutes. The fluorescence signal was initiated by adding 100 μL of assay buffer containing 6 mM TlNO3 and 10 mM K2SO4. Fluors were excited using the 488-nm line of an argon laser and emission was filtered using a 540±30 nm bandpass filter. Fluorescent signals were recorded for 3 minutes. Sums of the responses over basal responses were plotted versus concentrations of test compounds to obtain an EC50 value and the points fit with a nonlinear regression curve using GraphPad Prism software (GraphPad Software Inc., San Diego, Calif.). EC50 values were calculated from the resulting sigmoidal dose-response curves. The maximum response for each test compound was determined relative to the response produced by 10 μM retigabine. The maximum response of retigabine at 10 μM was set at 100%.
# [3] = test system: chronic constriction injury-induced neuropathic pain; experiment: Chronic constriction injury (CCI) model of neuropathic pain (Bennett model); assay type: in vivo, Sprague-Dawley rats; details: rat CCI model, about 30 mg/kg i.p., 30 minutes or more before testing
# Description: as §3
# as §4, with “55.” for “55. Rats were placed into inverted individual plastic containers (20×12.5×20 cm) on top of a suspended wire mesh grid, and acclimated to the test chambers for 20 minutes.”, “administration. […]” for “administration.”
# [4] = test system: spinal nerve ligation-induced neuropathic pain; experiment: Spinal nerve ligation (SNL) model of neuropathic pain; assay type: in vivo, Sprague-Dawley rats; details: rat SNL model, about 30 mg/kg i.p., 30 minutes or more before testing
# Description: as §3
# as §4, with “55.” for “55. Rats were placed into inverted individual plastic containers (20×12.5×20 cm) on top of a suspended wire mesh grid, and acclimated to the test chambers for 20 minutes.”, “administration. […]” for “administration.”
SMILES,EC50 (human KCNQ4) [µM],Emax (human KCNQ4) [%],EC50 (human KCNQ5) [µM],Emax (human KCNQ5) [%],EC50 [2] [µM],Emax [2] [%],change in paw withdrawal latency versus vehicle (tactile allodynia) [1],change in paw withdrawal latency versus vehicle (mechanical allodynia) [3],change in paw withdrawal latency versus vehicle (tactile allodynia) [4]
"CC1(C)[C@H]2CC[C@@H](CC(=O)Nn3c(C4CC4)nc4sccc4c3=O)[C@@H]1C2 [Example 15, N-(2-cyclopropyl-4-oxothieno[2,3-d]pyrimidin-3(4H)-yl)-2-[(1S,2S,5S)-6,6-dimethylbicyclo[3.1.1]hept-2-yl]acetamide]",> 30,21,> 30,210,0.1 to 0.5,149,,,statistically significant change in paw withdrawal latency versus vehicle
"CC1(C)[C@H]2CC[C@@H](CC(=O)Nn3c(C4CC4)nc4cc(C(F)(F)F)ccc4c3=O)[C@@H]1C2 [Example 4, N-[2-cyclopropyl-4-oxo-7-(trifluoromethyl)quinazolin-3(4H)-yl]-2-[(1S,2S,5S)-6,6-dimethylbicyclo[3.1.1]hept-2-yl]acetamide]",> 30,1,> 30,12,> 30,3,,,
"CC(C)c1nc2ccccc2c(=O)n1NC(=O)COC[C@@H]1CC[C@H]2C[C@@H]1C2(C)C [Example 8, 2-[(1S,2R,5S)-(6,6-dimethylbicyclo[3.1.1]hept-2-yl)methoxy]-N-[4-oxo-2-(propan-2-yl)quinazolin-3(4H)-yl]acetamide]",> 30,57,> 30,52,0.5 to 1,132,,,
"CC(SC[C@@H]1CC[C@H]2C[C@@H]1C2(C)C)C(=O)Nn1c(C(C)C)nc2ccccc2c1=O (stereo partly drawn) [Example 9, 2-({[(1S,2R,5S)-6,6-dimethylbicyclo[3.1.1]hept-2-yl]methyl}sulfanyl)-N-[4-oxo-2-(propan-2-yl)quinazolin-3(4H)-yl]propanamide]",> 30,23,> 30,49,0.1 to 0.5,49,,,

# More lines, main results first:
EC50 (human KCNQ4) [µM],Emax (human KCNQ4) [%],EC50 (human KCNQ5) [µM],Emax (human KCNQ5) [%],EC50 [2] [µM],Emax [2] [%],SMILES,change in paw withdrawal latency versus vehicle (tactile allodynia) [1],change in paw withdrawal latency versus vehicle (mechanical allodynia) [3],change in paw withdrawal latency versus vehicle (tactile allodynia) [4]
> 30,22,> 30,294,0.1 to 0.5,109,"CCc1nc2ccccc2c(=O)n1NC(=O)C[C@@H]1CC[C@H]2C[C@@H]1C2(C)C [Example 2, 2-[(1S,2S,5S)-6,6-dimethylbicyclo[3.1.1]hept-2-yl]-N-(2-ethyl-4-oxoquinazolin-3(4H)-yl)acetamide]",statistically significant change in paw withdrawal latency versus vehicle,,
> 30,6,> 30,50,< 0.1,93,"CC1(C)[C@H]2CC[C@@H](CC(=O)Nn3c(C4CC4)nc4ccccc4c3=O)[C@@H]1C2 [Example 5, N-(2-cyclopropyl-4-oxoquinazolin-3(4H)-yl)-2-[(1S,2S,5S)-6,6-dimethylbicyclo[3.1.1]hept-2-yl]acetamide]",statistically significant change in paw withdrawal latency versus vehicle,,
> 30,22,> 30,164,< 0.1,103,"CC(C)c1nc2ccccc2c(=O)n1NC(=O)C[C@@H]1CC[C@H]2C[C@@H]1C2(C)C [Example 1, 2-[(1S,2S,5S)-6,6-dimethylbicyclo[3.1.1]hept-2-yl]-N-[4-oxo-2-(propan-2-yl)quinazolin-3(4H)-yl]acetamide]",statistically significant change in paw withdrawal latency versus vehicle,statistically significant change in paw withdrawal latency versus vehicle,statistically significant change in paw withdrawal latency versus vehicle
1 to 10,46,> 30,10,0.1 to 0.5,111,"CC(C)c1nc2sccc2c(=O)n1NC(=O)C[C@@H]1CC[C@H]2C[C@@H]1C2(C)C [Example 20, 2-[(1S,2S,5S)-6,6-dimethylbicyclo[3.1.1]hept-2-yl]-N-[4-oxo-2-(propan-2-yl)thieno[2,3-d]pyrimidin-3(4H)-yl]acetamide]",,,
